Data as given in patent US6362188B1, “Farnesyl protein transferase inhibitors” (Schering Corporation, priority 1998, dated 2002).

Key:
Human tumor cells = assay: Soft Agar Assay (anchorage-independent growth); type: cell-based; settings: colony outgrowth in soft agar, stated as a range for the group
Experimental: Anchorage-independent growth is a characteristic of tumorigenic cell lines. Human tumor cells can be suspended in growth medium containing 0.3% agarose and an indicated concentration of a farnesyl transferase inhibitor. The solution can be overlayed onto growth medium solidified with 0.6% agarose containing the same concentration of farnesyl transferase inhibitor as the top layer. After the top layer is solidified, plates can be incubated for 10-16 days at 37° C. under 5% CO2 to allow colony outgrowth. After incubation, the colonies can be stained by overlaying the agar with a solution of MTT (3-[4,5-dimethyl-thiazol-2-yl]-2,5-diphenyltetrazolium bromide, Thiazolyl blue) (1 mg/mL in PBS). Colonies can be counted and the IC50's can be determined.

| Structure (SMILES) | IC50 (Human tumor cells) [nM] | melting point [°C] |
| --- | --- | --- |
| Cc1ncn(CC2CCCN(C(=O)C3CN(C4c5ccc(Cl)cc5CCc5cccnc54)CCN3C(=O)OC3CCCCC3)C2)c1C (single isomer, unassigned) [47(G)] | 0.05 to 30 | 98 to 130 |
| Cc1nccn1CC1CCCN(C(=O)C2CN(C3c4ccc(Cl)cc4CCc4cccnc43)CCN2C(=O)OC(C)(C)C)C1 (single isomer, unassigned) [Example 27] | 0.5 to 30 | 110 to 119 |
| Cc1cn(CC2CCCN(C(=O)C3CN(C4c5ccc(Cl)cc5CCc5cccnc54)CCN3C(=O)OC(C)(C)C)C2)cn1 (single isomer, unassigned) [Example 29] | 0.5 to 30 | 109 to 124 |
| Cc1nccn1CC1CCCN(C(=O)C2CN(C3c4ccc(Cl)cc4CCc4cccnc43)CCN2C(=O)OC(C)C)C1 (single isomer, unassigned) [Example 38] | 0.5 to 30 | 92 to 101 |
| Cc1nccn1CC1CCCN(C(=O)C2CN(C3c4ccc(Cl)cc4CCc4cccnc43)CCN2C(=O)OC(C)C)C1 (single isomer, unassigned) [Example 39] |  | 111 to 125 |
| Cc1nccn1CC1CCCN(C(=O)C2CN(C3c4ccc(Cl)cc4CCc4cccnc43)CCN2C(=O)OC(C)C)C1 (single isomer, unassigned) [Example 40] |  | 107 to 112 |
| Cc1nccn1CC1CCCN(C(=O)C2CN(C3c4ccc(Cl)cc4CCc4cccnc43)CCN2C(=O)OC(C)C)C1 (single isomer, unassigned) [Example 41] |  | 95 to 100 |
| Cc1nccn1CC1CCCN(C(=O)C2CN(C3c4ccc(Cl)cc4CCc4cccnc43)CCN2C(=O)OC2CCCCC2)C1 (single isomer, unassigned) [Example 44] | 0.5 to 30 | 112 to 135 |
| Cc1nccn1CC1CCCN(C(=O)C2CN(C3c4ccc(Cl)cc4CCc4cccnc43)CCN2C(=O)OC2CCCCC2)C1 (single isomer, unassigned) [Example 45] |  | 108 to 123 |
| Cc1nccn1CC1CCCN(C(=O)C2CN(C3c4ccc(Cl)cc4CCc4cccnc43)CCN2C(=O)OC2CCCCC2)C1 (single isomer, unassigned) [Example 46] |  | 91 to 94 |
| Cc1nccn1CC1CCCN(C(=O)C2CN(C3c4ccc(Cl)cc4CCc4cccnc43)CCN2C(=O)OC2CCCCC2)C1 (single isomer, unassigned) [Example 47] |  | 100 to 106 |
| Cc1cn(CC2CCCN(C(=O)C3CN(C4c5ccccc5CCc5cc(Cl)cnc54)CCN3C(=O)OC(C)(C)C)C2)cn1 (single isomer, unassigned) [Example 291] | 0.05 to 30 | 99 to 107 |
| Cc1cn(CC2CCCN(C(=O)C3CN(C4c5ccccc5CCc5cc(Cl)cnc54)CCN3C(=O)OC(C)(C)C)C2)cn1 (single isomer, unassigned) [Example 293] |  | 110 to 123 |
| CCc1cn(CC2CCCN(C(=O)C3CN(C4c5ccc(Cl)cc5CCc5cccnc54)CCN3C(=O)OC(C)(C)C)C2)cn1 (stereo not drawn) [35(A)] | 0.05 to 30 | 110 to 112 |
| CCc1cn(CC2CCCN(C(=O)C3CN(C4c5ccc(Cl)cc5CCc5cccnc54)CCN3C(=O)OC(C)(C)C)C2)cn1 (stereo not drawn) [35(C)] |  | 104 to 106 |
| CCc1cn(CC2CCCN(C(=O)C3CN(C4c5ccc(Cl)cc5CCc5cccnc54)CCN3C(=O)OC(C)(C)C)C2)cn1 (stereo not drawn) [35(D)] |  | 79 to 81 |
| Cc1cn(CC2CCCN2C(=O)C2CN(C3c4ccc(Cl)cc4CCc4cccnc43)CCN2C(=O)OC(C)(C)C)cn1 (stereo not drawn) [35(F)] | 0.05 to 30 | 115 to 120 |
| Cc1cn(CC2CCCN(C(=O)C3CN(C4c5ccc(Cl)cc5CCc5cccnc54)CCN3C(=O)OC(C)C)C2)cn1 (stereo not drawn) [41(A)] |  | 117 to 120 |
| Cc1cn(CC2CCCN(C(=O)C3CN(C4c5ccc(Cl)cc5CCc5cccnc54)CCN3C(=O)OC(C)C)C2)cn1 (stereo not drawn) [41(B)] |  | 101 to 120 |
| CC(C)OC(=O)N1CCN(C2c3ccc(Cl)cc3CCc3cccnc32)CC1C(=O)N1CCCC(Oc2cccnc2)C1 (stereo not drawn) [41(C)] | 0.05 to 30 | 104 to 108 |
| Cc1cn(CC2CCCN(C(=O)C3CN(C4c5ccc(Cl)cc5CCc5cccnc54)CCN3C(=O)OC3CCCCC3)C2)cn1 (stereo not drawn) [47(A)] |  | 122 to 127 |
| Cc1cn(CC2CCCN(C(=O)C3CN(C4c5ccc(Cl)cc5CCc5cccnc54)CCN3C(=O)OC3CCCCC3)C2)cn1 (stereo not drawn) [47(B)] |  | 133 to 139 |
| CCc1cn(CC2CCCN(C(=O)C3CN(C4c5ccc(Cl)cc5CCc5cccnc54)CCN3C(=O)OC3CCCCC3)C2)cn1 (stereo not drawn) [47(D)] | 0.05 to 30 | 66 to 68 |
| O=C(C1CN(C2c3ccc(Cl)cc3CCc3cccnc32)CCN1C(=O)OC1CCCCC1)N1CCCC(Cc2cnc[nH]2)C1 (stereo not drawn) [47(I)] | 0.05 to 30 | 113 to 115 |
| Cn1cncc1CC1CCCN(C(=O)C2CN(C3c4ccc(Cl)cc4CCc4cccnc43)CCN2C(=O)OC2CCCCC2)C1 (stereo not drawn) [47(K)] | 0.05 to 30 | 101 to 123 |

| Structure (SMILES) | IC50 (Human tumor cells) [nM] | melting point [°C] |
| --- | --- | --- |
| O=C(C1CN(C2c3ccc(Cl)cc3CCc3cccnc32)CCN1C(=O)OC1CCCCC1)N1CCCC(Oc2cccnc2)C1 (stereo not drawn) [47(U)] | 0.05 to 30 | 117 to 120 |
| Cc1nccn1CC1CCCN(C(=O)C2CN(C3c4ccc(Cl)cc4CCc4cc(Br)cnc43)CCN2C(=O)OC(C)(C)C)C1 (stereo not drawn) [Example 3] | 0.5 to 30 | 126 to 131 |
| Cc1cn(CC2CCCN(C(=O)C3CN(C4c5ccc(Cl)cc5CCc5cc(Br)cnc54)CCN3C(=O)OC(C)(C)C)C2)cn1 (stereo not drawn) [Example 4.1] | 0.5 to 30 | 114 to 121 |
| Cc1cn(CC2CCCN(C(=O)C3CN(C4c5ccc(Cl)cc5CCc5cc(Br)cnc54)CCN3C(=O)OC(C)(C)C)C2)cn1 (stereo not drawn) [Example 4.2] |  | 131 to 135 |
| Cc1nccn1CC1CCCN(C(=O)C2CN(C3c4ccc(Cl)cc4CCc4cc(Br)cnc43)CCN2C(=O)OC(C)(C)C)C1 (stereo not drawn) [Example 4] |  | 128 to 133 |
| CN1CCN(C(=O)C2CN(C3c4ccc(Cl)cc4CCc4cc(Br)cnc43)CCN2C(=O)OC(C)(C)C)CC1Cn1ccnc1 (stereo not drawn) [Example 5] | 0.5 to 30 | 123 to 134 |
| CC(C)(C)OC(=O)N1CCN(C2c3ccc(Cl)cc3CCc3cc(Br)cnc32)CC1C(=O)N1CCS(=O)(=O)C(Cn2ccnc2)C1 (stereo not drawn) [Example 8] |  | 179 to 182 |
| CC(C)(C)OC(=O)N1CCN([C@@H]2c3ccc(Cl)cc3CCc3cc(Br)cnc32)C[C@@H]1C(=O)N1CCC[C@H](Cn2ccnc2)C1 [Example 10] | 0.5 to 30 | 130 to 134 |
| CC(C)(C)OC(=O)N1CCN([C@H]2c3ccc(Cl)cc3CCc3cc(Br)cnc32)C[C@@H]1C(=O)N1CCC[C@H](Cn2ccnc2)C1 [Example 11] | 0.5 to 30 | 122 to 127 |
| CC(C)(C)OC(=O)N1CCN([C@@H]2c3ccc(Cl)cc3CCc3cc(Br)cnc32)C[C@@H]1C(=O)N1CCC[C@@H](Cn2ccnc2)C1 [Example 12] | 0.5 to 30 | 135 to 138 |
| CC(C)(C)OC(=O)N1CCN([C@H]2c3ccc(Cl)cc3CCc3cc(Br)cnc32)C[C@@H]1C(=O)N1CCC[C@@H](Cn2ccnc2)C1 [Example 13] | 0.5 to 30 | 127 to 130 |
| CC(C)OC(=O)N1CCN([C@@H]2c3ccc(Cl)cc3CCc3cc(Br)cnc32)C[C@@H]1C(=O)N1CCC[C@@H](Cn2ccnc2)C1 [Example 14] | 0.5 to 30 | 126 to 128 |
| O=C([C@H]1CN([C@@H]2c3ccc(Cl)cc3CCc3cc(Br)cnc32)CCN1C(=O)OC1CCCCC1)N1CCC[C@@H](Cn2ccnc2)C1 [Example 15] | 0.5 to 30 | 140 to 144 |
| CC(C)NC(=O)N1CCN([C@@H]2c3ccc(Cl)cc3CCc3cc(Br)cnc32)C[C@@H]1C(=O)N1CCC[C@@H](Cn2ccnc2)C1 [Example 17] |  | 132 to 136 |
| CC(C)(C)NC(=O)N1CCN([C@@H]2c3ccc(Cl)cc3CCc3cc(Br)cnc32)C[C@@H]1C(=O)N1CCC[C@H](Cn2ccnc2)C1 [Example 18] |  | 112 to 120 |
| CC(C)OC(=O)N1CCN([C@@H]2c3ccc(Cl)cc3CCc3cc(Br)cnc32)C[C@@H]1C(=O)N1CCC[C@H](Cn2ccnc2)C1 [Example 19] |  | 123 to 132 |
| CC(C)(C)NC(=O)N1CCN(C2c3ccc(Cl)cc3CCc3cc(Br)cnc32)C[C@@H]1C(=O)N1CCC[C@@H]1Cn1ccnc1 (stereo partly drawn) [Example 21] |  | 137 to 139 |
| CS(=O)(=O)N1CCN(C2c3ccc(Cl)cc3CCc3cc(Br)cnc32)C[C@@H]1C(=O)N1CCC[C@@H]1Cn1ccnc1 (stereo partly drawn) [Example 22] |  | 135 to 141 |
| CC(C)(C)OC(=O)N1CCN(C2c3ccc(Cl)cc3CCc3cccnc32)CC1C(=O)N1CCCC(Cn2ccnc2)C1 (stereo not drawn) [Example 25] |  | 124 to 143 |
| Cc1cn(CC2CCCN(C(=O)C3CN(C4c5ccc(Cl)cc5CCc5cccnc54)CCN3C(=O)OC(C)C)C2)cn1 (stereo not drawn) [Example 36] |  | 123 to 132 |
| Cc1cn(CC2CCCN(C(=O)C3CN(C4c5ccc(Cl)cc5CCc5cccnc54)CCN3C(=O)OC(C)C)C2)cn1 (stereo not drawn) [Example 37] |  | 95 to 111 |
| Cc1cn(CC2CCCN(C(=O)C3CN(C4c5ccc(Cl)cc5CCc5cccnc54)CCN3C(=O)OC3CCCCC3)C2)cn1 (stereo not drawn) [Example 42] |  | 99 to 113 |
| Cc1cn(CC2CCCN(C(=O)C3CN(C4c5ccc(Cl)cc5CCc5cccnc54)CCN3C(=O)OC3CCCCC3)C2)cn1 (stereo not drawn) [Example 43] |  | 108 to 118 |
| O=C([C@H]1CN(C2c3ccc(Cl)cc3CCc3cc(Cl)cnc32)CCN1C(=O)OC1CCCCC1)N1CCCC(Oc2cccnc2)C1 (stereo partly drawn) [Example 254A] |  | 105 to 113 |
| Cc1cn(C[C@@H]2CCCN(C(=O)[C@H]3CN(C4c5ccccc5CCc5ccccc54)CCN3C(=O)OC3CCCCC3)C2)cn1 [Example 414] |  | 98 to 112 |
